Holding throughout (assay type): biochemical
Assay [1] concerns the target T1, recombinant human tissue transglutaminase (rhTG2) (Homo sapiens, UniProt P21980).
T1 construct: purchased Zedira 1022 (so in the source); T022)
T1 sequence (P21980 1-687): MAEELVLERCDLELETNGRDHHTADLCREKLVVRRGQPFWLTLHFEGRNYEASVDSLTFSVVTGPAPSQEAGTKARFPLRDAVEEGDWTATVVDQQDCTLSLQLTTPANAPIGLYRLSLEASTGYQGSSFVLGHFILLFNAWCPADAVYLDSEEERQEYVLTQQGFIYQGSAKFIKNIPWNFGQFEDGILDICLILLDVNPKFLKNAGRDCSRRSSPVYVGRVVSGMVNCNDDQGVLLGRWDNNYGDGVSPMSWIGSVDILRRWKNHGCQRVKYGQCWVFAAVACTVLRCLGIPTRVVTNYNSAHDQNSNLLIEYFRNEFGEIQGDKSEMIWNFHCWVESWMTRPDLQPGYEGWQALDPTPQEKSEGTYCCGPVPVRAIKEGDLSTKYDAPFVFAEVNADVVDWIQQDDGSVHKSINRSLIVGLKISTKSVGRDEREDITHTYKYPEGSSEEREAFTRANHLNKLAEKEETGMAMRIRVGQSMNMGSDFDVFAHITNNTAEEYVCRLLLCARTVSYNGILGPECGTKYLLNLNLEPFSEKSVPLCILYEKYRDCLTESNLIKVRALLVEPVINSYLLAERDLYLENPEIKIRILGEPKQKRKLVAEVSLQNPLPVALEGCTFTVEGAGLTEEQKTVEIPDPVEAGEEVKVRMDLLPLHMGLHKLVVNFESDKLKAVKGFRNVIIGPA
Description: Inhibition of rec. human tissue transglutaminase (fluorescence, Abz-APE(CAD-DNP)QEA-OH). Particulars: Table 1, TG2 inhibitors. A digest of the protocol: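 His6-rhTG2 in a master mix (50 mM Tris-HCl pH 7.4, 7.5 mM CaCl2, 150 mM NaCl, 5 mM DTT, 13.4 mM glycine methylester, 50 μM Abz-APE(CAD-DNP)QEA-OH) was added to serially diluted inhibitor. Fluorescence (ex 313/em 418 nm) was followed at 37 °C for 20 min. IC50 came from the 10–20 min slope relative to the 2% DMSO control.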

Assay [2] has as its target T2, recombinant human factor XIII A-subunit (rhFXIII-A, plasma transglutaminase) (Homo sapiens, UniProt P00488).
T2 construct: His6; purchased Zedira 1027 (so in the source); T027)
T2 sequence (P00488 39-732 limits assumed): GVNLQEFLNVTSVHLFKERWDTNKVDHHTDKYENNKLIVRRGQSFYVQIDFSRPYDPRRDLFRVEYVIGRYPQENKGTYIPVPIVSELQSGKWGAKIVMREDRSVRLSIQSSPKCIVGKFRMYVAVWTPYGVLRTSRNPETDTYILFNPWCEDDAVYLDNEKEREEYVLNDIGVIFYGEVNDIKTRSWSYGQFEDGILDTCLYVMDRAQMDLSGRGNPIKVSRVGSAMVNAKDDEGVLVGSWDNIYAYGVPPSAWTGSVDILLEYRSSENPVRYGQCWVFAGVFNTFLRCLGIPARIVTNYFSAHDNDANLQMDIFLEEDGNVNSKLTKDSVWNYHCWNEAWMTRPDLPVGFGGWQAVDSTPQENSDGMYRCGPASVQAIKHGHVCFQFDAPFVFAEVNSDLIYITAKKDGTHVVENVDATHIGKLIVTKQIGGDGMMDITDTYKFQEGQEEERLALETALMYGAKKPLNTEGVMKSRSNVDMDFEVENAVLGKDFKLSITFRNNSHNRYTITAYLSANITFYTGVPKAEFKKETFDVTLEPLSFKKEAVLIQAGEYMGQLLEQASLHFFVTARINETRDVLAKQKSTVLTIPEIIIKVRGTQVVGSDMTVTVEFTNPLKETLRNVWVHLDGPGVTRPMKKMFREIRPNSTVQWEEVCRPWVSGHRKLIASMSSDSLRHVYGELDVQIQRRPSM
The assay can be described thus: Inhibition of rec. human coagulation factor XIII (fluorescence, Abz-NE(CAD-DNP)EQVSPLILLK-OH). Particulars: read-out: IC50 FXIII. The method, then:
Method for Inhibition Studies of Rec. Human Coagulation Factor XIII (Plasma Transglutaminase, rhFXIII-A)
(§1) 50 μg lyophilized His-tagged recombinant human factor XIII A-subunit (His6-rhFXIII, Zedira product 1027) is reconstituted in H2O (volume depends on original volume before lyophilization) resulting in a buffer containing 20 mM Tris-HCl, 150 mM NaCl, 1 mM EDTA, 1 mM DTT, 189 mg/ml maltodextrin, pH=7.5. The rhFXIII stock solution is diluted in buffer (50 mM Tris-HCl, 7.5 mM CaCl2, 150 mM NaCl, pH=7.4) to give a working solution of 59 U/ml (based on the amine-incorporation activity measured using transglutaminase activity assay #1036 (Zedira GmbH), described below).
(§2) A 10 mM inhibitor stock solution is prepared in DMSO, and from this a serial 1:2-fold dilution series is prepared also in DMSO. Each of the initial dilutions is subsequently diluted 1:50-fold with buffer (50 mM Tris-HCl, 7.5 mM CaCl2, 150 mM NaCl, pH=7.4) to yield the final working dilutions containing 2% (v/v) DMSO.
(§3) 15 μl of inhibitor working dilution are added per well of a 96 well microtiter plate. As control, 15 μl of a 2% (v/v) DMSO solution prepared using the buffer mentioned above are added per well.
(§4) 480 μl of His6-rhFXIII working solution and 120 μl human alpha thrombin (0.5 NIH units/μl) are added to 10.8 ml assay buffer (50 mM Tris-HCl, 7.5 mM CaCl2, 150 mM NaCl, 5 mM DTT, 13.4 mM glycine methylester, 50 μM Abz-NE(CAD-DNP)EQVSPLILLK-OH, (Zedira product A101; patent No.: EP 1781807B1), pH=7.4). From this master-mix solution, 285 μl are added per well containing the inhibitor. Increase in fluorescence is measured using […] and λem=418 nm at 37° C. for 35 min. A slope of the increase in fluorescence between 20 and 30 min is calculated for determination of the IC50 value (inhibitor concentration at which 50% of the initial FXIII activity is blocked).
(§5) Analysis of enzymatic activity is performed by calculation of the slope of an increase in fluorescence intensity. IC50 values are calculated by plotting the enzymatic activity (as percentage from control containing 2% DMSO instead of inhibitor) against the inhibitor concentration. IC50 is defined as the inhibitor concentration blocking 50%) of initial enzyme activity.

Another assay deals with T3, TG2 (Homo sapiens, UniProt P21980).
T3 sequence (P21980 1-687): T1 sequence (P21980 1-687)
Description: FXIII assay format using TG2 instead of FXIII (selectivity of FXIIIa blockers). To be noted: Table 3, selectivity with respect to TG2; read-out: IC50 TG2. The method, then:
as §1, §2, §3, §4
This assay was also used to determine selectivity of inhibitors preferentially blocking FXIIIa by using TG2 instead of FXIII.
as §5

[3] abbreviates: Table 1, selectivity with respect to FXIII.

Read-outs that look alike come from different tables or passages of the source. *1 amine or outer side, *2 acyl side, *3 side chain or, on linkers, in order; H or OH if unused. Where a SMILES comes first, the peptide text is derived from it. [ ]: non-standard residue; d: D form. The star is where a group is joined. Nle(5,6-dioxo,6-NHMe) = CNC(=O)C(=O)CC[C@H](N)C(=O)O; X4 = O=C(CC[C@H](N[*:1])C(=O)[*:2])C(=O)NC1CC1; Isonicotinoyl(3-COOH) = O=C(O)c1cnccc1C(=O)*; X6 = CCNC(=O)C(=O)CC[C@H](N[*:1])C(=O)[*:2]; X5 = NC(=O)C(=O)CC[C@H](N[*:1])C(=O)[*:2]; Pro(4-oxo) = O=C1CN[C@H](C(=O)O)C1; Chg = N[C@H](C(=O)O)C1CCCCC1; Tle = CC(C)(C)[C@H](N)C(=O)O; Nle = CCCC[C@H](N)C(=O)O Bounds are passed on as bounds.

We go through nine compounds from US11072634B2, “Inhibitors of transglutaminases” (Zedira GmbH, priority 2016, dated 2021).

As usually defined, the IC50 is the point on the concentration scale where inhibition reaches its midpoint.

Regarding `Cc1nc(Br)sc1C(=O)N[C@@H](CCC(=O)C(N)=O)C(=O)Nc1cccn(CC(=O)NCCC(C)C)c1=O` [Compound E05, (S)-2-(2-bromo-4-methylthiazole-5-carboxamido)-N1-(1-(2-(isopentylamino)-2-oxoethyl)-2-oxo-1,2-dihydropyridin-3-yl)-5-oxohexanediamide], the IC50 in assay [1] is 150 nM; in assay [2] (setting [3]), more than 100000 nM.
`CCCC[C@H](NC(=O)[C@H](CCC(=O)C(=O)NC)NC(=O)CNC(C)=O)C(=O)N[C@H](C(=O)N[C@@H](CC(C)C)C(=O)N1CCC[C@H]1C(=O)N[C@@H](Cc1c[nH]c2ccccc12)C(N)=O)[C@@H](C)CC` [Compound E34, (S)-2-(2-acetamidoacetamido)-N1-((S)-1-((2S,3S)-1-((S)-1-((S)-2-((S)-1-amino-3-(1H-indol-3-yl)-1-oxopropan-2-ylcarbamoyl)pyrrolidin-1-yl)-4-methyl-1-oxopentan-2-ylamino)-3-methyl-1-oxopentan-2-ylamino)-1-oxohexan-2-yl)-N6-methyl-5-oxohexanediamide] (Ac-G[Nle(5,6-dioxo,6-NHMe)][Nle]ILPW-NH2): the IC50 came out at 2450 nM in assay [2] (Table 3, FXIII inhibitors) and 200 nM on TG2.
For `CCNC(=O)C(=O)CC[C@H](NC(=O)c1ccncc1C(=O)O)C(=O)N[C@H](C(=O)N1CC(=O)C[C@H]1C(=O)N[C@H](C(=O)N[C@H](C(N)=O)C1CCCCC1)C1CCCCC1)C(C)(C)C` [Compound E26, 4-((S)-1-((S)-1-((S)-2-((S)-2-((S)-2-amino-1-cyclohexyl-2-oxoethylamino)-1-cyclohexyl-2-oxoethylcarbamoyl)-4-oxopyrrolidin-1-yl)-3,3-dimethyl-1-oxobutan-2-ylamino)-6-(ethylamino)-1,5,6-trioxohexan-2-ylcarbamoyl)nicotinic acid] ({Isonicotinoyl(3-COOH)}-[X6][Tle][Pro(4-oxo)][Chg][Chg]-NH2), in that order: 320 nM and 10800 nM.
For `CC(C)(C)[C@H](NC(=O)[C@H](CCC(=O)C(=O)NC1CC1)NC(=O)c1ccncc1C(=O)O)C(=O)N1CC(=O)C[C@H]1C(=O)N[C@H](C(=O)N[C@H](C(N)=O)C1CCCCC1)C1CCCCC1` [Compound E28, 4-((S)-1-((S)-1-((S)-2-((S)-2-((S)-2-amino-1-cyclohexyl-2-oxoethylamino)-1-cyclo-hexyl-2-oxoethylcarbamoyl)-4-oxopyrrolidin-1-yl)-3,3-dimethyl-1-oxobutan-2-yl-amino)-6-(cyclopropylamino)-1,5,6-trioxohexan-2-ylcarbamoyl)nicotinic acid] ({Isonicotinoyl(3-COOH)}-[X4][Tle][Pro(4-oxo)][Chg][Chg]-NH2), the IC50 in assay [2] (Table 3, FXIII inhibitors) came out at 275 nM.
Regarding `CCCC[C@H](NC(=O)[C@H](CCC(=O)C(N)=O)NC(=O)[C@H](CC(=O)O)NC(C)=O)C(=O)N[C@@H](CCCC)C(=O)N[C@@H](CC(C)C)C(=O)N1CCC[C@H]1C(=O)N[C@@H](Cc1c[nH]c2ccccc12)C(=O)N1CCC[C@H]1C(=O)O` [Compound E08, (S)-1-((S)-2-((S)-1-((4R,7S,10S,13S,16S)-7-(4-amino-3,4-dioxobutyl)-10, -dibutyl-4-(carboxymethyl)-18-methyl-2,5,8,11,14-pentaoxo-3,6,9,12,15-pentaazanonadecanecarbonyl)pyrrolidine-2-carboxamido)-3-(1H-indol-3-yl)propanoyl)pyrrolidine-2-carboxylic acid] (Ac-D[X5][Nle][Nle]LPWP-OH), the IC50 in assay [2] (Table 3, FXIII inhibitors) turned out to be 150 nM; on TG2, 100 nM.
In the case of `CCC(CC)CNC(=O)Cn1cccc(NC(=O)[C@H](CCC(=O)C(=O)NC)NC(=O)c2cncn2C)c1=O` [Compound E16, (S)—N1-(1-(2-(2-ethylbutylamino)-2-oxoethyl)-2-oxo-1,2-dihydropyridin-3-yl)-N6-methyl-2-(1-methyl-1H-imidazole-5-carboxamido)-5-oxonexanediamide], the IC50 in assay [1] is 50 nM; in assay [2] (setting [3]), more than 100000 nM.
As for `CCC(CC)CNC(=O)Cn1cccc(NC(=O)[C@H](CCC(=O)C(N)=O)NC(=O)c2cncn2C)c1=O` [Compound E04, (S)—N1-(1-(2-(2-ethylbutylamino)-2-oxoethyl)-2-oxo-1,2-dihydropyridin-3-yl)-2-(1-methyl-1H-imidazole-5-carboxamido)-5-oxohexanediamide], the IC50 was 100 nM in assay [1] and more than 100000 nM in assay [2] (setting [3]).
On to `CC[C@@H](C)[C@H](NC(=O)[C@H](CCC(N)=O)NC(=O)[C@H](CCC(=O)C(N)=O)NC(C)=O)C(=O)N[C@H](C(N)=O)C(C)C` [Compound E03, (S)-2-acetamido-N1-((S)-5-amino-1-((2S,3R)-1-((S)-1-amino-3-methyl-1-oxobutan-2-ylamino)-3-methyl-1-oxopentan-2-ylamino)-1,5-dioxopentan-2-yl)-5-oxohexanediamide], for which the figures for the IC50 in assay [1] and in assay [2] (setting [3]) were 750 nM and more than 100000 nM, respectively.
`COC(=O)[C@H](CC(C)C)NC(=O)[C@@H]1CCCN1C(=O)[C@@H](NC(=O)[C@H](CCC(=O)C(N)=O)NC(C)=O)C(C)C` [Compound E01, (S)-methyl 2-((S)-1-((S)-2-((S)-2-acetamido-6-amino-5,6-dioxohexanamido)-3-methylbutanoyl)pyrrolidine-2-carboxamido)-4-methylpentanoate]: the figures for the IC50 in assay [1] and in assay [2] (setting [3]) were 600 nM and more than 100000 nM, respectively.
